Assay results from patent publication US20220330549A1, “USE OF N-BENZYLBENZAMIDE-BASED COMPOUND AS HERBICIDE” (Northwest A&F University, priority 2020, published 2022).

Legend:
Assay type in all cases: in vivo
Barnyard grass [1] = assay: Herbicidal activity test for indoor pre-emergence soil treatment; design: key: level 1-9; higher = more weed remaining vs blank control; conditions: 150 g a.i./ha, visual inspection 21 days after treatment
Experimental: (§1) The herbicidal activity test for indoor pre-emergence soil treatment was performed with some of the N-benzylbenzamide-based compounds of general formula I or II with reference to the method of NY/T 1155.3-2006. Neutral sandy loam soil having an organic content of ≤2% was added to fill ⅘ of the pot, and the soil was completely moistened by infiltrating irrigation from the bottom of the pot. The seeds of the test weed were evenly spread on the soil surface, and then covered by 0.5 cm to 2.0 cm of soil depending on the seed size. Representative compounds in the examples were used to prepare emulsifiable concentrates (10%), and spray treatments to the soil were performed 24 hours after the sowing with the test agents diluted with water, at a spraying dosage of 150 g(a.i.)/ha. Then, the results were investigated by visual inspection 21 days after the treatments. The herbicidal activity of the agent was evaluated on a scale of 1-9 levels according to the symptoms and severity of damage to the test weeds.
(§2) Level 2: equivalent to 0 to 2.5% of the weed in the blank control area;
(§3) Level 3: equivalent to 2.6 to 5% of the weed in the blank control area;
(§4) Level 4: equivalent to 5.1 to 10% of the weed in the blank control area;
(§5) Level 5: equivalent to 10.1 to 15% of the weed in the blank control area;
(§6) Level 6: equivalent to 15.1 to 25% of the weed in the blank control area;
(§7) Level 7: equivalent to 25.1 to 35% of the weed in the blank control area;
(§8) Level 8: equivalent to 35.1 to 67.5% of the weed in the blank control area; and
(§9) Level 9: equivalent to 67.6 to 100% of the weed in the blank control area.

Piemarker [2] = assay: as above; design: key: level 1-9; higher = more weed remaining vs blank control; conditions: 150 g a.i./ha, visual inspection 21 days after treatment
Experimental: as §1, §2, §3, §4, §5, §6, §7, §8, §9

green bristlegrass [3] = assay: as above; design: key: level 1-9; higher = more weed remaining vs blank control; conditions: 150 g a.i./ha, visual inspection 21 days after treatment
Experimental: as §1, §2, §3, §4, §5, §6, §7, §8, §9

Amaranthus retroflexus [4] = assay: as above; design: key: 1-9 levels; higher = more weed remaining vs blank control; conditions: 150 g a.i./ha, visual inspection 21 days after treatment
Experimental: as §1, §2, §3, §4, §5, §6, §7, §8, §9

Digitaria sanguinalis [5] = assay: as above; design: key: 1-9 levels; higher = more weed remaining vs blank control; conditions: 150 g a.i./ha, visual inspection 21 days after treatment
Experimental: as §1, §2, §3, §4, §5, §6, §7, §8, §9

Humulus scandens [6] = assay: as above; conditions: 150 g a.i./ha, visual inspection 21 days after treatment
Experimental: as §1, §2, §3, §4, §5, §6, §7, §8, §9

Amaranthus retroflexus [7] = assay: Herbicidal activity test for indoor post-emergence spraying on stems and leaves; design: key: grade level by weed remaining vs blank control, e.g. 5 = 10.1-15%; conditions: 150 g a.i./ha, visual inspection 21 days after treatment
Experimental: (§10) The post-emergence herbicidal activity test was performed with some of the N-benzylbenzamide-based compounds of general formula I or II with reference to the method of NY/T 1155.4-2006. […] After the sowing, the weed was moved to a greenhouse for regular cultivation. […] Then, the results were investigated by visual inspection 21 days after the treatments. […] Level 5: equivalent to 10.1 to 15% of the weed in the blank control area; Level 6: equivalent to 15.1 to 25% of the weed in the blank control area; Level 7: equivalent to 25.1 to 35% of the weed in the blank control area; Level 8: equivalent to 35.1 to 67.5% of the weed in the blank control area; and […]

Barnyard grass [8] = assay: as above; design: key: grade level by weed remaining vs blank control, e.g. 5 = 10.1-15%; conditions: 150 g a.i./ha, visual inspection 21 days after treatment
Experimental: as §10

Digitaria sanguinalis [9] = assay: as above; design: key: grade level by weed remaining vs blank control, e.g. 5 = 10.1-15%; conditions: 150 g a.i./ha, visual inspection 21 days after treatment
Experimental: as §10

Humulus scandens [10] = assay: as above; design: key: grade level by weed remaining vs blank control, e.g. 5 = 10.1-15%; conditions: 150 g a.i./ha, visual inspection 21 days after treatment
Experimental: as §10

Piemarker [11] = assay: as above; design: key: grade level by weed remaining vs blank control, e.g. 5 = 10.1-15%; conditions: 150 g a.i./ha, visual inspection 21 days after treatment
Experimental: as §10

green bristlegrass [12] = assay: as above; design: key: grade level by weed remaining vs blank control, e.g. 5 = 10.1-15%; conditions: 150 g a.i./ha, visual inspection 21 days after treatment
Experimental: as §10

Broadleaf weed = assay: Post-emergence herbicidal activity test in a paddy field; design: key: level scale; higher level = more weed left vs blank control; conditions: 150 g a.i./ha (penoxsulam control 250 g(a.i.)/h)
Experimental: (§11) The post-emergence herbicidal activity test was performed in a paddy field with some of the N-benzylbenzamide-based compounds of general formula I or II with reference to the method of GB/T 17980.40-2000. […] Spray treatments were performed in the stage where 4 leaves to 5 leaves were grown for the rice seedlings which was about 1 month after the sowing. Representative compounds in the examples were used to prepare emulsifiable concentrates (10%), and spray treatments were performed with the concentrates in water at a dosage of 150 g(a.i.)/ha, and repeated 4 times for each treatment, and the area was 50 m^2. 25 g/L of penoxsulam suspension was used as a control agent and applied at a dosage of 250 g(a.i.)/h. The results were investigated by a value estimating survey method 15 days and 30 days after the treatments. The relative weed population quantities were estimated by comparing each agent treated area with an adjacent blank control area, and the results of which were investigated with the following grading standard method using the overall coverage of the weed population as an indicator.
as §2, §3, §4, §5, §6, §7, §8, §9

Cyperaceae = assay: as above; design: key: level scale; higher level = more weed left vs blank control; conditions: 150 g a.i./ha (penoxsulam control 250 g(a.i.)/h)
Experimental: as §11, §2, §3, §4, §5, §6, §7, §8, §9

Gramineae = assay: as above; design: key: level scale; higher level = more weed left vs blank control; conditions: 150 g a.i./ha (penoxsulam control 250 g(a.i.)/h)
Experimental: as §11, §2, §3, §4, §5, §6, §7, §8, §9

Acalypha australis = assay: Field test for weed control in a corn field; conditions: 150 g a.i./ha, after treatment
Experimental: (§12) The weed control efficacy field test was performed in a corn field with some of the N-benzylbenzamide-based compounds of general formula I or II with reference to the method of GB/T 17980.42-2000. […] Spray treatments were performed in the stage where 2 leaves to 5 leaves were grown for the corns after the sowing. Representative compounds in the examples were used to prepare emulsifiable concentrates (10%), and spray treatments were performed with the concentrates in water at a dosage of 150 g(a.i.)/ha, and repeated 4 times for each treatment, and the area was 20 m^2. Oil dispersion with 25% of mesotrione was used as a control agent and applied at a dosage of 150 g(a.i.)/h. […] The herbicidal activities of the agents were evaluated on a scale of 1-9 levels according to the symptoms and severity of damage to the test weeds.
as §2, §3, §4, §5, §6, §7, §8, §9

Amaranthus retroflexus [13] = assay: Field test for weed control in a corn field; conditions: 150 g a.i./ha, 30 days after treatment
Experimental: as §12, §2, §3, §4, §5, §6, §7, §8, §9

Barnyard grass [14] = assay: Field test for weed control in a corn field; conditions: 150 g a.i./ha, 30 days after treatment
Experimental: as §12, §2, §3, §4, §5, §6, §7, §8, §9

Chenopodium album = assay: Field test for weed control in a corn field; conditions: 150 g a.i./ha, after treatment
Experimental: as §12, §2, §3, §4, §5, §6, §7, §8, §9

Convolvulus arvensis = assay: Field test for weed control in a corn field; conditions: 150 g a.i./ha, after treatment
Experimental: as §12, §2, §3, §4, §5, §6, §7, §8, §9

Digitaria sanguinalis [15] = assay: Field test for weed control in a corn field; conditions: 150 g a.i./ha, after treatment
Experimental: as §12, §2, §3, §4, §5, §6, §7, §8, §9

Portulaca oleracea = assay: Field test for weed control in a corn field; conditions: 150 g a.i./ha, after treatment
Experimental: as §12, §2, §3, §4, §5, §6, §7, §8, §9

Solanum nigrum = assay: Field test for weed control in a corn field; conditions: 150 g a.i./ha, 30 days after treatment
Experimental: as §12, §2, §3, §4, §5, §6, §7, §8, §9

goosegrass = assay: Field test for weed control in a corn field; conditions: 150 g a.i./ha, after treatment
Experimental: as §12, §2, §3, §4, §5, §6, §7, §8, §9

green bristlegrass [16] = assay: Field test for weed control in a corn field; conditions: 150 g a.i./ha, after treatment
Experimental: as §12, §2, §3, §4, §5, §6, §7, §8, §9

nutgrass flatsedge = assay: Field test for weed control in a corn field; conditions: 150 g a.i./ha, after treatment
Experimental: as §12, §2, §3, §4, §5, §6, §7, §8, §9

Compound | Herbicidal Activity Barnyard grass (Barnyard grass [1]) | Herbicidal Activity Piemarker (Piemarker [2]) | Herbicidal Activity Green bristlegrass (green bristlegrass [3]) | Herbicidal Activity Amaranthus retroflexus (Amaranthus retroflexus [4]) | Herbicidal Activity Digitaria sanguinalis (Digitaria sanguinalis [5]) | Herbicidal Activity Humulus scandens (Humulus scandens [6]) | Herbicidal Activity Amaranthus retroflexus (Amaranthus retroflexus [7]) | Herbicidal Activity Barnyard grass (Barnyard grass [8]) | Herbicidal Activity Digitaria sanguinalis (Digitaria sanguinalis [9]) | Herbicidal Activity Humulus scandens (Humulus scandens [10]) | Herbicidal Activity Piemarker (Piemarker [11]) | Herbicidal Activity Green bristlegrass (green bristlegrass [12]) | Herbicidal activity 15 days after treatment Broadleaf weed (Broadleaf weed) | Herbicidal activity 30 days after treatment Broadleaf weed (Broadleaf weed) | Herbicidal activity 15 days after treatment Cyperaceae (Cyperaceae) | Herbicidal activity 30 days after treatment Cyperaceae (Cyperaceae) | Herbicidal activity 15 days after treatment Gramineae (Gramineae) | Herbicidal activity 30 days after treatment Gramineae (Gramineae) | Post-emergence weed control effect, Acalypha australis (Acalypha australis) | Post-emergence weed control effect, Amaranthus retroflexus (Amaranthus retroflexus [13]) | also measured
COc1ccccc1C(=O)NCc1cccc(F)c1 [Compound A01, N-(3-fluorobenzylamine)-2-methoxybenzamide] | 1 | 3 (equivalent to 2.6 to 5% of the weed in the blank control area) | 1 | 3 (equivalent to 2.6 to 5% of the weed in the blank control area) | 1 | 4 (equivalent to 5.1 to 10% of the weed in the blank control area) | 1 | 1 | 1 | 1 | 1 | 1 | 1 | 2 (equivalent to 0 to 2.5% of the weed in the blank control area) | 1 | 2 (equivalent to 0 to 2.5% of the weed in the blank control area) | 2 (equivalent to 0 to 2.5% of the weed in the blank control area) | 2 (equivalent to 0 to 2.5% of the weed in the blank control area) | 2 (equivalent to 0 to 2.5% of the weed in the blank control area) | 1 | Post-emergence weed control effect, Barnyard grass (Barnyard grass [14]): 2 (equivalent to 0 to 2.5% of the weed in the blank control area); Post-emergence weed control effect, Chenopodium album (Chenopodium album): 1; Post-emergence weed control effect, Convolvulus arvensis (Convolvulus arvensis): 1; Post-emergence weed control effect, Digitaria sanguinalis (Digitaria sanguinalis [15]): 2 (equivalent to 0 to 2.5% of the weed in the blank control area); Post-emergence weed control effect, Portulaca oleracea (Portulaca oleracea): 1; Post-emergence weed control effect, Solanum nigrum (Solanum nigrum): 2 (equivalent to 0 to 2.5% of the weed in the blank control area); Post-emergence weed control effect, Goose grass (goosegrass): 2 (equivalent to 0 to 2.5% of the weed in the blank control area); Post-emergence weed control effect, Green bristlegrass (green bristlegrass [16]): 1; Post-emergence weed control effect, Nutgrass flatsedge (nutgrass flatsedge): 2 (equivalent to 0 to 2.5% of the weed in the blank control area)
CS(=O)(=O)c1cc(C(F)(F)F)ccc1C(=O)c1cnoc1C1CC1 [Isoxaflutole, reference compound] | 1 | 1 | 1 | 1 | 1 | 1 |  |  |  |  |  |  |  |  |  |  |  |  |  |  | 
CS(=O)(=O)c1ccc(C(=O)C2C(=O)CCCC2=O)c([N+](=O)[O-])c1 [Mesotrione, reference compound] |  |  |  |  |  |  | 1 | 1 | 1 | 1 | 1 | 1 |  |  |  |  |  |  | 2 (equivalent to 0 to 2.5% of the weed in the blank control area) | 1 | Post-emergence weed control effect, Barnyard grass (Barnyard grass [14]): 1; Post-emergence weed control effect, Chenopodium album (Chenopodium album): 1; Post-emergence weed control effect, Convolvulus arvensis (Convolvulus arvensis): 1; Post-emergence weed control effect, Digitaria sanguinalis (Digitaria sanguinalis [15]): 2 (equivalent to 0 to 2.5% of the weed in the blank control area); Post-emergence weed control effect, Portulaca oleracea (Portulaca oleracea): 1; Post-emergence weed control effect, Solanum nigrum (Solanum nigrum): 1; Post-emergence weed control effect, Goose grass (goosegrass): 2 (equivalent to 0 to 2.5% of the weed in the blank control area); Post-emergence weed control effect, Green bristlegrass (green bristlegrass [16]): 1; Post-emergence weed control effect, Nutgrass flatsedge (nutgrass flatsedge): 1
COc1cnc(OC)n2nc(NS(=O)(=O)c3c(OCC(F)F)cccc3C(F)(F)F)nc12 [Penoxsulam, reference compound] |  |  |  |  |  |  |  |  |  |  |  |  | 2 (equivalent to 0 to 2.5% of the weed in the blank control area) | 1 | 2 (equivalent to 0 to 2.5% of the weed in the blank control area) | 2 (equivalent to 0 to 2.5% of the weed in the blank control area) | 2 (equivalent to 0 to 2.5% of the weed in the blank control area) | 1 |  |  | 
